Reference: patent publication US20230165872A1, “COMBINATION OF BCMA-DIRECTED T CELL THERAPY AND AN IMMUNOMODULATORY COMPOUND” (Juno Therapeutics, Inc., priority 2020, published 2023)

Assays:
Ikaros = assay: Intracellular Ikaros expression in BCMA-bead stimulated anti-BCMA CAR T cells (flow cytometry, MFI); assay type: cell-based, human
Method: (§1) A BCMA-Fc fusion protein containing the extracellular domain of human BCMA and a human IgG1Fc was conjugated to beads by covalently coupling to the surface of commercially available tosyl-activated magnetic beads having a diameter of approximately […] (M-450 beads, ThermoFisher, Waltham Mass.) (see e.g. International published PCT App. No. WO2019/027850). Following incubation, anti-BCMA CAR-expressing T cells were stained with antibodies and analyzed by flow cytometry to assess intracellular levels of Ikaros and Aiolos in CD4+CAR+ or CD8+CAR+ cells, as measured by median fluorescence intensity (MFI). Median fluorescence intensity (MFI) values for Ikaros and Aiolos were normalized and calculated as a percentage relative to vehicle control.

PBMCs = conditions: cultures of PBMCs; cited from earlier work
anti-BCMA CAR T cells = assay: Viability and count of anti-BCMA CAR T cells after 7-day chronic stimulation with BCMA-conjugated beads; assay type: cell-based, human
Method: (§2) Cryofrozen anti-BCMA CAR T cells, produced substantially as described in Example 1 and formulated at a 1:1 ratio of CD4+ and CD8^+ T cells, were thawed. To subject cells to chronic stimulation conditions, the anti-BCMA CAR+ T cells were stimulated with 50 μg BCMA conjugated beads (diameter about 4.5 μm from a 50 μg/ml BCMA-conjugated bead composition, generated as described in Example 2) at a ratio of T cells to beads of 1:1 in the presence or absence of Compound A (iberdomide, (S)-3-[4-(4-morpholin-4-ylmethyl-benzyloxy)-1-oxo-1,3-dihydro-isoindol-2-yl]-piperidine-2,6-dione) (1 nM or 10 nM), Compound B ((S)-4-(4-(4-(((2-(2,6-dioxopiperidin-3-yl)-1-oxoisoindolin-4-yl)oxy)methyl)benzyl)piperazin-1-yl)-3-fluorobenzonitrile) (0.1 nM or 1 nM), or DMSO vehicle control. The cells were then incubated at 37° C., 5% CO2 for 7 days.
At day 7, anti-BCMA CAR cells of all the samples were counted using a cellometer machine and stained for flow cytometric analysis. Cells were stained with a viability dye and analyzed by flow cytometry. Viability and count of anti-BCMA CAR T cells was increased in the presence of Compound A or Compound B.
(§3) Cryofrozen anti-BCMA CAR T cells, produced substantially as described in Example 1 and formulated at a 1:1 ratio of CD4+ and CD8+ T cells, were thawed. […] The cells were then incubated at 37° C., 5% CO2 for 7 days.
At day 7, anti-BCMA CAR cells of all the samples were counted using a cellometer machine and stained for flow cytometric analysis. Cells were stained with a viability dye and analyzed by flow cytometry.

Aiolos = assay: Intracellular Aiolos expression in BCMA-bead stimulated anti-BCMA CAR T cells (flow cytometry, MFI); assay type: cell-based, human; conditions: CD4+CAR+ or CD8+CAR+ cells; 24 or 72 hours; lenalidomide 1000 nM, Compound A 1, 10, 100 nM, Compound B 0.1, 1, 10 nM
Method: as §1

RPMI-8226 target cells [1] = assay: Acute co-culture cytokine secretion of anti-BCMA CAR T cells with RPMI-8226; assay type: cell-based, human
Method: Anti-tumor effects of anti-BCMA CAR T cells, alone and in combination with cell immunomodulatory compounds Compound A (iberdomide, (S)-3-[4-(4-morpholin-4-ylmethyl-benzyloxy)-1-oxo-1,3-dihydro-isoindol-2-yl]-piperidine-2,6-dione) or Compound B ((S)-4-(4-(4-(((2-(2,6-dioxopiperidin-3-yl)-1-oxoisoindolin-4-yl)oxy)methyl)benzyl)piperazin-1-yl)-3-fluorobenzonitrile), were assessed in two different BCMA-expressing target multiple myeloma cell lines RPMI-8226 or OPM-2. Anti-BCMA CAR+ T cells were generated as described in Example 1.
The anti-BCMA CAR-expressing T cells were incubated with target cells, RPMI 8226 (BCMA^med human multiple myeloma cell line) or OPM2 cells (BCMA^med human multiple myeloma cell line) target cells, at an E:T ratio of 1:1. The co-culture incubation with target cells was carried out in the presence of Compound A (0.01 nM, 0.1 nM, 1 nM, 10 nM, 100 nM, 1000 nM, or 10,000 nM) or Compound B (0.01 nM, 0.1 nM, 1 nM, 10 nM, 100 nM, 1000 nM, or 10,000 nM).

RPMI-8226 target cells [2] = assay: Rescue: rechallenge of chronically stimulated anti-BCMA CAR T cells with RPMI-8226 in the presence of compound; assay type: cell-based, human; conditions: Example 4: Compound A 1 or 10 nM, Compound B 0.1 or 1 nM during re-challenge
Method: Anti-BCMA CAR-expressing T cells, produced as described in Example 1, were stimulated with 50 μg BCMA conjugated beads (diameter about 4.5 μm from a 50 μg/ml BCMA-conjugated bead composition) substantially as described in Example 3 to induce chronic stimulation (to produce hypofunctional, exhausted T cells). After the chronic stimulation, the CAR-T cells were rechallenged with RPMI-8226 target cells (labeled with NucLightRed as described in Example 2) at a 1:1 (effector:target) ratio in the presence of (rescued) with Compound A (iberdomide, (S)-3-[4-(4-morpholin-4-ylmethyl-benzyloxy)-1-oxo-1,3-dihydro-isoindol-2-yl]-piperidine-2,6-dione) (1 nM or 10 nM), Compound B ((S)-4-(4-(4-(((2-(2,6-dioxopiperidin-3-yl)-1-oxoisoindolin-4-yl)oxy)methyl)benzyl)piperazin-1-yl)-3-fluorobenzonitrile) (0.1 nM or 1 nM), or DMSO vehicle control.
Killing activity and cytokine production were assessed as described in Example 3.
Studies were undertaken to determine whether Compound A (iberdomide, (S)-3-[4-(4-morpholin-4-ylmethyl-benzyloxy)-1-oxo-1,3-dihydro-isoindol-2-yl]-piperidine-2,6-dione) rescued anti-BCMA CAR T cell function following chronic stimulation. To directly stimulate via CAR engagement to induce chronic stimulation of cells, anti-BCMA CAR T cells were stimulated with BCMA conjugated beads (diameter about 4.5 μm from a 50 μg/ml BCMA-conjugated bead composition, generated as described in Example 9) at a ratio of T cells to beads of 1:1. The cells were then incubated at 37° C., 5% CO2 for 7 days.
Cultures were incubated at 37° C., 5% CO2, and images were taken every 2 hours over 5-7 days with an Essen IncuCyte Zoom live-cell analysis system to track NucLightRed-positive target cells.

RPMI-8226 target cells [3] = assay: Rechallenge with RPMI-8226 after concurrent compound treatment during chronic stimulation (cytolysis, cytokines); assay type: cell-based, human
Method: as §2
CAR T cells that had been stimulated for 7 days with cultured with 50 μg BCMA-coated magnetic beads concurrently in the presence of the cell immunomodulatory compound were washed free of compound and cells were debeaded. The anti-BCMA CAR T cells that had been stimulated for 7 days with BCMA-conjugated beads in the presence of the compounds were co-cultured with RPMI-8226 target cells (labeled with NucLightRed as described in Example 2) at a 1:1 (effector:target) ratio. Killing activity was monitored over 200 hours by measuring NucLightRed (NLR)-positive target cells. The total cell number of NLR-expressing RPMI targets cells was determined by normalizing cell number over time to the number of cells at the initiation of the co-culture (t=0) for each respective condition.
For cytokine measurements, cell-free supernatants were collected from the cytolytic assay described above 24 hours after plating. Cytokine levels of IFNg, IL-2, and TNFalpha (TNFα) was measured in the supernatant.
as §3
Cytolytic activity was assessed using OPM-2 and RPMI-8226 BCMA expressing target cells transduced with NucLight Red, a red fluorescent protein detectable by microscopy, to allow for measurement of target cell death. Anti-BCMA CAR T cells that had been stimulated for 7 days with BCMA-conjugated beads in the presence of the compounds were co-cultured with RPMI-8226 target cells at a 0.3:1 (effector:target) or 1:1 ratio. Cultures were incubated at 37° C., 5% CO2, and images were taken every 2 hours over 5-7 days with an Essen IncuCyte Zoom live-cell analysis system to track NucLightRed-positive target cells.
For cytokine measurements, cell-free supernatants were collected from the cytolytic assay described above 24 hours after plating. Cytokine levels were measured using IFNg, IL-2, and TNFalpha Meso Scale Discovery cytokine kit (Mesoscale) according to manufacturer instructions. The data was analyzed using GraphPad Prism to calculate absolute changes in cytokine relative to the DMSO vehicle control.

[4] = Example 3: day 7, Compound A 1 or 10 nM, Compound B 0.1 or 1 nM
[5] = Example 7: day 7, lenalidomide 1000 nM, Compound A 0.1, 1 or 10 nM, FIG. 8

| SMILES | intracellular Ikaros expression (MFI, percentage relative to vehicle control) (Ikaros; CD4+CAR+ or CD8+CAR+ cells, 24 or 72 hours, lenalidomide 1000 nM, Compound A 1, 10, 100 nM, Compound B 0.1, 1, 10 nM) | potency in decreasing Ikaros and Aiolos expression, compared with lenalidomide (Ikaros; stimulated anti-BCMA CAR T cells) | activation of T cells (PBMCs) | loss of Aiolos and Ikaros (PBMCs) | production of IL-2 and IFN-γ (PBMCs) | count of anti-BCMA CAR T cells (anti-BCMA CAR T cells; [4]) | viability of anti-BCMA CAR T cells (anti-BCMA CAR T cells; [4]) | intracellular Aiolos expression (MFI, percentage relative to vehicle control) (Aiolos) | concentration needed for effect on cytokine production, compared with Compound A (RPMI-8226 target cells [1]; acute co-culture) | CAR T cell cytokine production (RPMI-8226 target cells [1]; similar studies, target cell line not stated) | rescue of chronically activated CAR T cells (RPMI-8226 target cells [2]) | cytolytic activity after long-term stimulation in the presence of compound (RPMI-8226 target cells [3]; Example 7: E:T 0.3:1, lenalidomide 1000 nM, Compound A 1 or 10 nM, FIG. 9A) | production of IFN-gamma (RPMI-8226 target cells [3]; Example 7: supernatant at 24 hours, relative to DMSO, FIG. 9B) | production of IL-2 (RPMI-8226 target cells [3]; Example 7: supernatant at 24 hours, relative to DMSO, FIG. 9C) | production of TNF-alpha (RPMI-8226 target cells [3]; Example 7: supernatant at 24 hours, relative to DMSO, FIG. 9D) | count of anti-BCMA CAR T cells (anti-BCMA CAR T cells; [5]) | viability of anti-BCMA CAR T cells (anti-BCMA CAR T cells; [5]) |
| --- | --- | --- | --- | --- | --- | --- | --- | --- | --- | --- | --- | --- | --- | --- | --- | --- | --- |
| N#Cc1ccc(N2CCN(Cc3ccc(COc4cccc5c4CN([C@H]4CCC(=O)NC4=O)C5=O)cc3)CC2)c(F)c1 [Compound B, (S)-4-(4-(4-(((2-(2,6-dioxopiperidin-3-yl)-1-oxoisoindolin-4-yl)oxy)methyl)benzyl)piperazin-1-yl)-3-fluorobenzonitrile] | concentration dependent decrease | more potent than lenalidomide | activation of T cells | induces loss of Aiolos and Ikaros | increased production of IL-2 and IFN-γ | increased | increased | concentration dependent decrease | enhanced effects at lower concentrations compared to Compound A | increased | able to rescue chronically activated CAR T cells to improve functionality |  |  |  |  |  |  |
| Nc1cccc2c1CN(C1CCC(=O)NC1=O)C2=O (centres unmarked) [lenalidomide, reference compound] |  |  |  |  |  |  |  |  |  |  |  | increased cytolytic activity | increased production | increased production | increased production | increased | increased |
